Laboratory results from PubChem BioAssay (NCI).
Values joined by “and” are separate entries in the source; they are usually repeats but may differ in a detail not shown here. Identical values can stand only once.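 Five compound concentrations were applied to cells in 96-well plates for 48 hours; endpoints were derived by simple linear interpolation of the resulting dose-response curve. Here, GI50 denotes the concentration required for 50% inhibition of growth. TGI marks complete inhibition of growth.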

How the values were obtained:
Assay in all cases: NCI-60 cell line screen, 48 h
CAKI-1 renal = test system: CAKI-1 renal
SNB-19 CNS = test system: SNB-19 CNS
K-562 leukemia = test system: K-562 leukemia
HOP-92 NSCLC = test system: HOP-92 NSCLC
SK-OV-3 ovarian = test system: SK-OV-3 ovarian
UO-31 renal = test system: UO-31 renal
SNB-75 CNS = test system: SNB-75 CNS
SK-MEL-28 melanoma = test system: SK-MEL-28 melanoma
HT29 colon = test system: HT29 colon
EKVX NSCLC = test system: EKVX NSCLC

Row | SMILES | GI50 (CAKI-1 renal) | TGI (CAKI-1 renal) | GI50 (SNB-19 CNS) | TGI (SNB-19 CNS) [µM] | GI50 (K-562 leukemia) | TGI (K-562 leukemia) [µM] | GI50 (HOP-92 NSCLC) | TGI (HOP-92 NSCLC) | GI50 (SK-OV-3 ovarian) [µM] | TGI (SK-OV-3 ovarian) [µM] | GI50 (UO-31 renal) | TGI (UO-31 renal) | GI50 (SNB-75 CNS) | TGI (SNB-75 CNS) | GI50 (SK-MEL-28 melanoma) | TGI (SK-MEL-28 melanoma) | GI50 (HT29 colon) | TGI (HT29 colon) [µM] | GI50 (EKVX NSCLC) | TGI (EKVX NSCLC)
1 | COc1ccc2c(c1)C(=O)/C(=C/c1cccc(OCC(=O)c3ccccc3)c1)O2 | 3.16 µM | 11.5 µM | 15 µM | 29 | 0.722 µM | 2.13 | 3.86 µM | 16.1 µM | 15.8 | 29.2 | 1.59 µM | 3.09 µM | 10.7 µM | 22.9 µM | 4.76 µM | 15.7 µM | 3.1 µM | 7.56 | 9.88 µM | 29.1 µM
2 | COc1ccc([C@@]2(O)c3c(ccc(O)c3OC)[C@H]2OC)c(OC)c1 |  | > 100 µM |  | > 100 |  | > 100 |  | > 100 µM |  | > 100 |  | > 100 µM |  | > 100 µM |  | > 100 µM |  | > 100 |  | > 100 µM
3 | CN(C)C/C=C/C(=O)Nc1ccc(C(=O)N[C@@]2(C)CCC[C@@H](Nc3ncc(Cl)c(-c4c[nH]c5ccccc45)n3)C2)nc1 | < 0.01 µM | 1.11 µM | 0.0163 µM | 1.07 | < 0.01 µM | 5.32 | < 0.0109 µM | 0.041 µM | 0.101 | 1.23 | 0.0557 µM | 0.718 µM | 0.0137 µM | 0.0427 µM | < 0.01 µM | 0.118 µM | < 0.01 µM | 1.09 | < 0.01 µM | 0.564 µM
4 | COc1ccc(C(C#N)NC23CC4CC(CC(C4)C2)C3)cc1 (stereo not given) |  | > 100 µM |  | > 100 |  | > 100 |  | > 100 µM |  | > 100 |  | > 100 µM |  | > 100 µM |  | > 100 µM |  | > 100 |  | > 100 µM
5 | NCCCNCCS |  | > 100 µM |  | > 100 |  | > 100 |  | > 100 µM |  | > 100 |  | > 100 µM |  | > 100 µM |  | > 100 µM |  | > 100 |  | > 100 µM
6 | CNC(=O)OCc1nc(SSC(C)(C)C)n(C)c1COC(=O)NC |  | 3.94 µM |  | 33.9 |  | 7.06 |  | 3.67 µM |  | 31.1 |  | 20.3 µM |  | 22.4 µM |  | 4.67 µM |  | 13.3 |  | 20.7 µM
7 | CCN(CC)CCCC(CCl)Nc1ccnc2cc(Cl)ccc12 (stereo not given) | 22.1 µM and 16.2 µM | 47.5 µM and 44.8 µM | 94.8 µM and > 89.7 µM | > 100 | 3.42 µM and 3.99 µM | 15.7 | 11.2 µM and 14.5 µM | 36.6 µM and 42.1 µM | > 100 | > 100 | 16.6 µM and 21.5 µM | 37 µM and > 100 µM | 26.1 µM and 29.5 µM | 59.2 µM and > 73.6 µM | 18.8 µM and 19 µM | 54.7 µM and > 63 µM | 14.7 µM and 6.38 µM | > 100 | 30.4 µM and 29.1 µM | 87.2 µM and > 100 µM
8 | Oc1ccc2ccccc2c1N=Nc1cccc2ccccc12 |  | > 100 µM |  | > 100 |  | > 100 |  | > 100 µM |  | > 100 |  | > 100 µM |  | > 100 µM and 80.4 µM |  | > 100 µM |  | > 100 |  | > 100 µM
9 | CCCCCCCCCCCC(=O)OCCOCCOCCOCCOCCOC(=O)CCCCCCCCCCC |  | > 100 µM |  | > 100 |  | > 100 |  | > 100 µM |  | > 100 |  | > 100 µM |  | > 100 µM |  | > 100 µM |  | > 100 |  | > 100 µM
10 | COCCOC(=O)C1=C(O)c2ccccc2S(=O)(=O)N1C |  | > 100 µM |  | > 100 |  | > 100 |  | > 100 µM |  | > 100 |  | > 100 µM |  | 87.6 µM |  | > 100 µM |  | > 100 |  | > 100 µM
